Experimental data as given in US20200236933A1, “USE OF A NON-IONIC SURFACTANT WHICH IS A POLYOL DERIVATIVE AS A PLANT GROWTH STIMULATING AGENT OR AS AN ADJUVANT” (priority 2017, published 2020).

Key:
soybeans = experiment: Germination of soybeans after immersion treatment; assay type: in vivo; conditions: soybeans immersed 1 h in 0.75% solution
Experimental: The beans are next dried in a heating tunnel at 45° C. for one hour. Four batch repetitions of 15 beans are deposited on Petri dishes containing a medium composed of 2% Agar Agar and 98% water.
The Petri dishes are kept at ambient temperature and in darkness. Each day the number of germinated beans (having a radicle) is counted.

maize seeds [1] = experiment: Germination of maize seeds after immersion treatment (Example 2); assay type: in vivo; conditions: maize seeds immersed 1 h in 0.75% solution
Experimental: (§1) The seeds are next dried in a heating tunnel at 45° C. for one hour. Four batch repetitions of 16 seeds are deposited on Petri dishes containing a medium composed of 2% Agar Agar and 98% water.
(§2) The Petri dishes are kept at ambient temperature and in darkness. Each day the number of seeds that have germinated (having a radicle) is counted.

parsley seeds = experiment: Germination of parsley seeds after immersion treatment; assay type: in vivo; conditions: parsley seeds immersed 1 h in 0.75% solution
Experimental: The seeds are next dried in a heating tunnel at 45° C. for one hour. Two batch repetitions of 48 seeds are deposited on Petri dishes containing a medium composed of 2% Agar Agar and 98% water.
as §2

strawberry leaves = experiment: Spreading of an aqueous solution on a leaf; assay type: in vivo; conditions: 0.75% solution sprayed on strawberry leaves
Experimental: Strawberry plants in pots are grown in a climate-controlled chamber in the following conditions: 23° C. and a photoperiod of 16 h/8 h.

parsley leaves = experiment: Calcium content of the leaves; assay type: in vivo; conditions: 3% solution, watering every three days and spraying twice daily, seven days
Excerpt: After seven days of treatment, the leaves are harvested and analyzed to determine their calcium content.

parsley plants = experiment: Protein content of parsley; assay type: in vivo; conditions: 40 ml of 0.75% solution every three days, 23 days
Experimental: Each batch consists of four pots. After 23 days of treatment the leaves are cut and an analysis of the amount of protein is carried out.

maize seeds [2] = experiment: Root growth (rootlets) of maize seeds; assay type: in vivo; conditions: maize seeds immersed 1 h in 2.5% solution; after two days
Experimental: as §1
The Petri dishes are kept at ambient temperature and in darkness.

[3] = system: flat-leaf parsley variety NOVAS; experiment: Vertical anchoring of the root, assays in fields; assay type: in vivo; conditions: seeds immersed 1 h in 2.5% solution; 12 weeks after sowing
Experimental: In order to test the effect of the invention in conditions of crops in the field, the flat-leaf parsley variety NOVAS is used.
The seeds are next dried in a heating tunnel at 45° C. for 1 h.
The seeds are mechanically sown (seeder) on strips of four rows each one beside the other to limit as much as possible the variations in soil quality, insulation and temperature.
12 weeks after sowing, 25 parsley plants were harvested in order to observe root morphology.

[4] = system: winter barley (Sobell variety); experiment: Yield of winter barley in climate controlled chamber; assay type: in vivo; conditions: 3 l/ha of 3% solution sprayed at commencement of tillering
Experimental: Assays in a climate controlled chamber (temperature 22° C./20° C., photoperiod 16 h/8 h, 25,000 lux) were carried out on winter barley (Sobell variety, Arvalis). The barley was sowed in containers of 1 meter by 1 meter.
The plants were then watered every 2 weeks with the same amount of water for both control batch and treated batch.
The yields were then calculated as the ratio of the weight of harvested seeds to the sowed area. This ratio is expressed in q/ha.

rape leaf = experiment: Penetration of a colored aqueous solution through the cuticle; conditions: 2.5% solution, 2 h on rape leaf then wiped
Experimental: Rape, a plant known for having a thick cuticle, was chosen in order to test the effectiveness of the invention as a penetrating agent.
A colorant in aqueous solution was deposited on a rape leaf, then left for 2 h and then wiped.

[5] = Drift limitation: size of drops after spraying; assay type: physicochemical; conditions: 2.5% with 5% titanium dioxide; 2, 4 and 8 bars
Excerpt: Increasing pressures (2, 4 and 8 bars) were used in order to test different conditions (FIG. 21: a, b and c respectively). The greater the pressure the more numerous and fine were the drops.

[6] = Formation of foam on preparing the mixture; assay type: physicochemical; conditions: 1% with 1% Cocamidopropyl betaine
Experimental: The two solutions were next stirred in equivalent manner, the photographs being taken before, immediately after stirring and 1 h after stirring.

[7] = Homogenization of the mixture; assay type: physicochemical; conditions: 1% with 2% glycerin colored blue
Excerpt: The mixtures were next stirred in equivalent manner. Photographs are taken after stirring.

[8] = pH modification of the mixture; assay type: physicochemical; conditions: increasing concentration of the 2.5% sucrose stearate solution added to a solution at pH 9.4
Aspergillus niger = experiment: Fungicide effect by antibiogram type method; assay type: cell-based
Excerpt: In order to evaluate any impact of the sugar esters used according to the invention on microorganisms, the fungicide effect was searched for by an antibiogram type method. The method consists of: • spreading a solution contaminated with the mold Aspergillus niger on the surface of a Petri dish containing glucose gel growth medium with chloramphenicol. • arrange 4 sterile antibiogram disks of 6 mm diameter per Petri dish. • inoculate with 3 drops (0.071 g) of solution to test or control solution per disk. The dishes are next placed in the incubator at 25° C. for 5 days. Measurement of the inhibitory diameter is carried out every day.

Helminthosphaeria = experiment: Reduction of phytosanitary products on maize; assay type: in vivo, maize (P7043, Pioneer); conditions: 25% of recommended dose (0.25 L/ha Amistar + 0.6 L/ha Cicero) plus 3 L/ha sucrose stearate; 12-14 leaf stage
Experimental: Assays in a climate-controlled chamber were carried out on maize ([…], Pioneer). The maize was sowed in containers of 1 meter by 1 meter. […] […]® comprises the active ingredient: azoxystrobin (belonging to the strobilurin family), and Cicero® comprises two active ingredients: chlorothalonil (belonging to the chloronitrile family), and flutriafol (belonging to the triazole family). […] The containers were then taken out of the climate-controlled chamber and disposed near a field having more than 50% of maize plants diseased with Helminthosphaeria. After 1 day, the containers were placed back in the climate-controlled chamber under controlled conditions.

sucrose stearate
increase of the germination kinetics on average (soybeans): 25%
germinated seeds, treated batch compared with the control batch (soybeans; after 1 day): 4 times
increase of the germination kinetics on average (maize seeds [1]): 30%
germinated seeds, treated batch compared with the control batch (maize seeds [1]; after 2 days): 10 times
increase of the germination kinetics on average (parsley seeds): 10%
germinated seeds, treated batch compared with the control batch (parsley seeds; between 4 days and 6 days): 2 times
distribution of the solution on the leaf (spreading of the drops) (strawberry leaves): distributed evenly over the leaf
passage of the solution onto the lower face compared with the control batch (strawberry leaves): much greater passage of the solution onto the lower face
reduction in the level of calcium in the leaves (parsley leaves): 17%
increase in the protein amount compared with the control batch (parsley plants): 56%
rootlets on the germinated seeds (maize seeds [2]): rootlet presence is observed
root morphology [3]: root elongation, coupled with vertical anchorage of the roots
Yield [4]: 67.9 q/ha
yield increase [4]: 25%
penetration of the colorant through the cuticle (rape leaf): enables the colorant to color the leaf and thus to penetrate through the cuticle
size of the drops after spraying [5]: enables an increase the size of the drops
reduction of the volume of foam immediately after stirring [6]: 30%
homogenization of the mixture [7]: better homogenization of the mixture
pH at which the mixture stabilizes [8]: 5.25
Inhibitory diameter (Aspergillus niger; 0.1% solution, D1): 0 mm
Inhibitory diameter (Aspergillus niger; 0.1% solution, D2): 0 mm
Inhibitory diameter (Aspergillus niger; 0.1% solution, D3): 0 mm
Inhibitory diameter (Aspergillus niger; 0.1% solution, D4): 0 mm
Inhibitory diameter (Aspergillus niger; 0.1% solution, D5): 0 mm
Inhibitory diameter (Aspergillus niger; 1% solution, D1): 0 mm
Inhibitory diameter (Aspergillus niger; 1% solution, D2): 0 mm
Inhibitory diameter (Aspergillus niger; 1% solution, D3): 0 mm
Inhibitory diameter (Aspergillus niger; 1% solution, D4): 0 mm
Inhibitory diameter (Aspergillus niger; 1% solution, D5): 0 mm
Inhibitory diameter (Aspergillus niger; 3% solution, D1): 0 mm
Inhibitory diameter (Aspergillus niger; 3% solution, D2): 0 mm
Inhibitory diameter (Aspergillus niger; 3% solution, D3): 0 mm
Inhibitory diameter (Aspergillus niger; 3% solution, D4): 0 mm
Inhibitory diameter (Aspergillus niger; 3% solution, D5): 0 mm
Inhibitory diameter (Aspergillus niger; 10% solution, D1): 0 mm
Inhibitory diameter (Aspergillus niger; 10% solution, D2): 0 mm
Inhibitory diameter (Aspergillus niger; 10% solution, D3): 0 mm
Inhibitory diameter (Aspergillus niger; 10% solution, D4): 0 mm
Inhibitory diameter (Aspergillus niger; 10% solution, D5): 0 mm
fungicide effect (Aspergillus niger; whatever the concentrations tested (0.1-10%)): no fungicide effect
plants presenting Helminthosphaeria spots (Helminthosphaeria): less than 10%
